System: mouse leukemia L-1210 cells
Assay: Inhibitory activity on multiplication of mouse leukemia L-1210 initially cultured cells
Assay type: cell-based
Details: 48 hours, 37° C., RPMI 1640 with 10% bovine fetal serum
Method: (1) Test for inhibitory activity on multiplication of mouse leukemia L-1210 initially cultured cells.
Mouse leukemia L-1210 cells collected from the abdominal cavities of DBA/2 mouse were incubated in a 5% CO2 incubator at 37° C. for 48 hours by using a RPMI 1640 medium containing 10% of bovine fetal serum and 5 μM of 2-mercaptoethanol.

Point of comparison: “cis-Oxalato-1-amino-1-aminomethylcyclohexane platinum [compound 13]”, IC50 0.021 µg/mL. Against it:
- NCC1(N)CCCC1.[OH][Pt]([OH])([Cl])[Cl] [compound 19, cis-Dichloro-trans-dihydroxy-1-amino-1-aminomethylcyclopentane platinum] — 29-fold higher, 0.60 µg/mL
- NCC1(N)CCCC1.[Cl][Pt][Cl] [compound 18, cis-Dichloro-1-amino-1-aminomethylcyclopentane platinum] — within 1.5-fold, 0.02 µg/mL

System: mouse leukemia L-1210
Assay: Antitumor activity on mouse leukemia L-1210 (T/C percentage of survival)
Assay type: in vivo
Details: 0.5 mg/kg, i.p. once a day for 5 days, female CDF1 mouse
Method: (2) Test for antitumor activity on mouse leukemia L-1210.
Into 6-weeks-old female CDF1 mouse were inoculated 1×10^5 L-1210 cells, and each drug was administered intraperitoneally once a day for 5 consecutive days, starting 24 hours after the inoculation. Physiological saline was administered to a control group. From the average survival periods of the drug-treated group and the control group (abbreviated as T and C, respectively), T/C percentage (T/C×100) was determined.

Point of comparison: `O=C(CCl)[O][Pt]1([O]C(=O)CCl)[NH]CC2(CCCCC2)[NH]1` [compound 15, cis-bis(Chloroacetato)-1-amino-1-aminomethylcyclohexane platinum], “Antitumor effect shown by T/C percentage” value 135%. Against it:
- cis-Oxalato-1-amino-1-aminomethylcyclohexane platinum [compound 13] — higher, 146%
- NCC1(N)CCCCC1.[Cl][Pt]([Cl])([Cl])[Cl] [compound 12, cis-Tetrachloro-1-amino-1-aminomethylcyclohexane platinum] — higher, 137%
- NCC1(N)CCCC1.[Cl][Pt][Cl] [compound 18, cis-Dichloro-1-amino-1-aminomethylcyclopentane platinum] — higher, 179%
- cis-Dichloro-1,2-diamino-2-ethylbutane platinum [compound 5] — the same, 135%
- NCC1(N)CCCC1.O=C([O-])C(=O)[O-].[Pt+2] [compound 21, cis-Oxalato-1-amino-1-aminomethylcyclopentane platinum] — lower, 124%

Same assay, conditions: 1 mg/kg, i.p. once a day for 5 days, female CDF1 mouse

Point of comparison: `CC1(C)C[NH][Pt]([Cl])([Cl])[NH]1` [compound 1, cis-Dichloro-1,2-diamino-2-methylpropane platinum], “Antitumor effect shown by T/C percentage” value 133%. Against it:
- cis-Oxalato-1-amino-1-aminomethylcyclohexane platinum [compound 13] — higher, 188%
- NCC1(N)CCCCC1.[Cl][Pt]([Cl])([Cl])[Cl] [compound 12, cis-Tetrachloro-1-amino-1-aminomethylcyclohexane platinum] — higher, 200%
- O=C(CCl)[O][Pt]1([O]C(=O)CCl)[NH]CC2(CCCCC2)[NH]1 [compound 15, cis-bis(Chloroacetato)-1-amino-1-aminomethylcyclohexane platinum] — higher, 175%
- CCC(N)(CC)CN.O=C([O-])C(=O)[O-].[Pt+2] [compound 6, cis-Oxalato-1,2-diamino-2-ethylbutane platinum] — lower, 130%
- NCC1(N)CCCC1.[Cl][Pt][Cl] [compound 18, cis-Dichloro-1-amino-1-aminomethylcyclopentane platinum] — higher, 226%
- CC(C)(N)CN.[Cl][Pt]([Cl])([Cl])[Cl] [compound 3, cis-Tetrachloro-1,2-diamino-2-methylpropane platinum] — lower, 127%
- cis-Dichloro-1,2-diamino-2-ethylbutane platinum [compound 5] — higher, 181%
- NCC1(N)CCCC1.O=C([O-])C(=O)[O-].[Pt+2] [compound 21, cis-Oxalato-1-amino-1-aminomethylcyclopentane platinum] — higher, 141%

Same assay, conditions: 2 mg/kg, i.p. once a day for 5 days, female CDF1 mouse

Point of comparison: `NCC1(N)CCCC1.[Cl][Pt][Cl]` [compound 18, cis-Dichloro-1-amino-1-aminomethylcyclopentane platinum], “Antitumor effect shown by T/C percentage” value 344%. Against it:
- CC1(C)C[NH][Pt]([Cl])([Cl])[NH]1 [compound 1, cis-Dichloro-1,2-diamino-2-methylpropane platinum] — lower, 171%
- cis-Oxalato-1-amino-1-aminomethylcyclohexane platinum [compound 13] — lower, 296%
- NCC1(N)CCCCC1.[Cl][Pt]([Cl])([Cl])[Cl] [compound 12, cis-Tetrachloro-1-amino-1-aminomethylcyclohexane platinum] — lower, 259%
- O=C(CCl)[O][Pt]1([O]C(=O)CCl)[NH]CC2(CCCCC2)[NH]1 [compound 15, cis-bis(Chloroacetato)-1-amino-1-aminomethylcyclohexane platinum] — lower, 200%
- CCC(N)(CC)CN.O=C([O-])C(=O)[O-].[Pt+2] [compound 6, cis-Oxalato-1,2-diamino-2-ethylbutane platinum] — lower, 152%
- CC(C)(N)CN.[Cl][Pt]([Cl])([Cl])[Cl] [compound 3, cis-Tetrachloro-1,2-diamino-2-methylpropane platinum] — lower, 139%
- cis-Dichloro-1,2-diamino-2-ethylbutane platinum [compound 5] — lower, 291%
- NCC1(N)CCCC1.O=C([O-])C(=O)[O-].[Pt+2] [compound 21, cis-Oxalato-1-amino-1-aminomethylcyclopentane platinum] — lower, 161%

Same assay, conditions: 4 mg/kg, i.p. once a day for 5 days, female CDF1 mouse

Point of comparison: `CC1(C)C[NH][Pt]([Cl])([Cl])[NH]1` [compound 1, cis-Dichloro-1,2-diamino-2-methylpropane platinum], “Antitumor effect shown by T/C percentage” value 206%. Against it:
- NCC1(N)CCCCC1.[OH][Pt]([OH])([Cl])[Cl] [compound 11, cis-Dichloro-trans-dihydroxy-1-amino-1-aminomethylcyclohexane platinum] — lower, 162%
- cis-Oxalato-1-amino-1-aminomethylcyclohexane platinum [compound 13] — higher, 230%
- NCC1(N)CCCCC1.[Cl][Pt]([Cl])([Cl])[Cl] [compound 12, cis-Tetrachloro-1-amino-1-aminomethylcyclohexane platinum] — higher, 224%
- O=C(CCl)[O][Pt]1([O]C(=O)CCl)[NH]CC2(CCCCC2)[NH]1 [compound 15, cis-bis(Chloroacetato)-1-amino-1-aminomethylcyclohexane platinum] — higher, 299%
- NCC1(N)CCCC1.[OH][Pt]([OH])([Cl])[Cl] [compound 19, cis-Dichloro-trans-dihydroxy-1-amino-1-aminomethylcyclopentane platinum] — lower, 138%
- CCC(N)(CC)CN.O=C([O-])C(=O)[O-].[Pt+2] [compound 6, cis-Oxalato-1,2-diamino-2-ethylbutane platinum] — higher, 226%
- NCC1(N)CCCC1.[Cl][Pt][Cl] [compound 18, cis-Dichloro-1-amino-1-aminomethylcyclopentane platinum] — lower, 141%
- CC(C)(N)CN.[Cl][Pt]([Cl])([Cl])[Cl] [compound 3, cis-Tetrachloro-1,2-diamino-2-methylpropane platinum] — lower, 162%
- cis-Dichloro-1,2-diamino-2-ethylbutane platinum [compound 5] — lower, 199%
- NCC1(N)CCCC1.O=C([O-])C(=O)[O-].[Pt+2] [compound 21, cis-Oxalato-1-amino-1-aminomethylcyclopentane platinum] — lower, 189%

Same assay, conditions: 8 mg/kg, i.p. once a day for 5 days, female CDF1 mouse

Point of comparison: `NCC1(N)CCCCC1.[OH][Pt]([OH])([Cl])[Cl]` [compound 11, cis-Dichloro-trans-dihydroxy-1-amino-1-aminomethylcyclohexane platinum], “Antitumor effect shown by T/C percentage” value 237%. Against it:
- CC1(C)C[NH][Pt]([Cl])([Cl])[NH]1 [compound 1, cis-Dichloro-1,2-diamino-2-methylpropane platinum] — lower, 124%
- cis-Oxalato-1-amino-1-aminomethylcyclohexane platinum [compound 13] — lower, 218%
- NCC1(N)CCCCC1.[Cl][Pt]([Cl])([Cl])[Cl] [compound 12, cis-Tetrachloro-1-amino-1-aminomethylcyclohexane platinum] — lower, 95%
- O=C(CCl)[O][Pt]1([O]C(=O)CCl)[NH]CC2(CCCCC2)[NH]1 [compound 15, cis-bis(Chloroacetato)-1-amino-1-aminomethylcyclohexane platinum] — lower, 130%
- NCC1(N)CCCC1.[OH][Pt]([OH])([Cl])[Cl] [compound 19, cis-Dichloro-trans-dihydroxy-1-amino-1-aminomethylcyclopentane platinum] — lower, 174%
- CCC(N)(CC)CN.O=C([O-])C(=O)[O-].[Pt+2] [compound 6, cis-Oxalato-1,2-diamino-2-ethylbutane platinum] — lower, 206%
- NCC1(N)CCCC1.[Cl][Pt][Cl] [compound 18, cis-Dichloro-1-amino-1-aminomethylcyclopentane platinum] — lower, 92%
- CC(C)(N)CN.[Cl][Pt]([Cl])([Cl])[Cl] [compound 3, cis-Tetrachloro-1,2-diamino-2-methylpropane platinum] — lower, 154%
- cis-Dichloro-1,2-diamino-2-ethylbutane platinum [compound 5] — lower, 82%
- NCC1(N)CCCC1.O=C([O-])C(=O)[O-].[Pt+2] [compound 21, cis-Oxalato-1-amino-1-aminomethylcyclopentane platinum] — lower, 166%

Same assay, conditions: 16 mg/kg, i.p. once a day for 5 days, female CDF1 mouse

Point of comparison: `CC1(C)C[NH][Pt]([Cl])([Cl])[NH]1` [compound 1, cis-Dichloro-1,2-diamino-2-methylpropane platinum], “Antitumor effect shown by T/C percentage” value 51%. Against it:
- NCC1(N)CCCCC1.[OH][Pt]([OH])([Cl])[Cl] [compound 11, cis-Dichloro-trans-dihydroxy-1-amino-1-aminomethylcyclohexane platinum] — higher, 275%
- NCC1(N)CCCC1.[OH][Pt]([OH])([Cl])[Cl] [compound 19, cis-Dichloro-trans-dihydroxy-1-amino-1-aminomethylcyclopentane platinum] — higher, 323%
- CCC(N)(CC)CN.O=C([O-])C(=O)[O-].[Pt+2] [compound 6, cis-Oxalato-1,2-diamino-2-ethylbutane platinum] — higher, 211%
- CC(C)(N)CN.[Cl][Pt]([Cl])([Cl])[Cl] [compound 3, cis-Tetrachloro-1,2-diamino-2-methylpropane platinum] — higher, 60%

Same assay, conditions: 32 mg/kg, i.p. once a day for 5 days, female CDF1 mouse

Point of comparison: `NCC1(N)CCCC1.[OH][Pt]([OH])([Cl])[Cl]` [compound 19, cis-Dichloro-trans-dihydroxy-1-amino-1-aminomethylcyclopentane platinum], “Antitumor effect shown by T/C percentage” value 113%. Against it:
- NCC1(N)CCCCC1.[OH][Pt]([OH])([Cl])[Cl] [compound 11, cis-Dichloro-trans-dihydroxy-1-amino-1-aminomethylcyclohexane platinum] — lower, 108%

Same assay, conditions: 64 mg/kg, i.p. once a day for 5 days, female CDF1 mouse

Point of comparison: `NCC1(N)CCCC1.[OH][Pt]([OH])([Cl])[Cl]` [compound 19, cis-Dichloro-trans-dihydroxy-1-amino-1-aminomethylcyclopentane platinum], “Antitumor effect shown by T/C percentage” value 80%. Against it:
- NCC1(N)CCCCC1.[OH][Pt]([OH])([Cl])[Cl] [compound 11, cis-Dichloro-trans-dihydroxy-1-amino-1-aminomethylcyclohexane platinum] — lower, 67%

System: not given
Assay: not given
Details: not given

With `NCC1(N)CCCCC1.[OH][Pt]([OH])([Cl])[Cl]` [compound 11, cis-Dichloro-trans-dihydroxy-1-amino-1-aminomethylcyclohexane platinum] the Solubility in water was greater than 2000 µg/mL.
For “cis-Oxalato-1-amino-1-aminomethylcyclohexane platinum [compound 13]”, the Solubility in water was greater than 2500 µg/mL.
`NCC1(N)CCCCC1.[Cl][Pt]([Cl])([Cl])[Cl]` [compound 12, cis-Tetrachloro-1-amino-1-aminomethylcyclohexane platinum] showed a Solubility in water greater than 15000 µg/mL.
Work on `O=C(CCl)[O][Pt]1([O]C(=O)CCl)[NH]CC2(CCCCC2)[NH]1` [compound 15, cis-bis(Chloroacetato)-1-amino-1-aminomethylcyclohexane platinum] yielded a Solubility in water greater than 1500 µg/mL.
Work on `CC(C)(N)CN.[Cl][Pt]([Cl])([Cl])[Cl]` [compound 3, cis-Tetrachloro-1,2-diamino-2-methylpropane platinum] yielded a Solubility in water greater than 12000 µg/mL.
For “cis-bis(Pyruvato)-1-amino-1-aminomethylcyclohexane platinum [compound 16]”, the Solubility in water was greater than 2000 µg/mL.
“cis-Dichloro-1,2-diamino-2-ethylbutane platinum [compound 5]” showed a Solubility in water greater than 2500 µg/mL.

Point of comparison: `NCC1(N)CCCC1.O=C([O-])C(O)C(=O)[O-].[Pt+2]` [compound 23, cis-2-Hydroxymalonato-1-amino-1-aminomethylcyclopentane platinum], Solubility in water 5000 µg/mL. Against it:
- CC1(C)C[NH][Pt]([Cl])([Cl])[NH]1 [compound 1, cis-Dichloro-1,2-diamino-2-methylpropane platinum] — the same, 5000 µg/mL
- CCC(N)(CC)CN.[OH][Pt]([OH])([Cl])[Cl] [compound 7, cis-Dichloro-trans-dihydroxy-1,2-diamino-2-ethylbutane platinum] — 2.6-fold higher, 13000 µg/mL
- CCC1C(=O)[O][Pt]2([NH]CC(CC)(CC)[NH]2)[O]C1=O (stereo not drawn) [compound 9, cis-2-Ethylmalonato-1,2-diamino-2-ethylbutane platinum] — 5-fold higher, 25000 µg/mL
- CCC(N)(CC)CN.O=C([O-])C(O)C(=O)[O-].[Pt+2] [compound 10, cis-2-Hydroxymalonato-1,2-diamino-2-ethylbutane platinum] — 3.2-fold higher, 16000 µg/mL
- CCC(C)(N)CN.[Cl][Pt][Cl] (stereo not drawn) [compound 4, cis-Dichloro-1,2-diamino-2-methylbutane platinum] — within 1.5-fold, 3500 µg/mL
- CCC(N)(CC)CN.[Cl][Pt]([Cl])([Cl])[Cl] [compound 8, cis-Tetrachloro-1,2-diamino-2-ethylbutane platinum] — the same, 5000 µg/mL
- [Cl][Pt]1([Cl])([Cl])([Cl])[NH]CC2(CCCC2)[NH]1 [compound 20, cis-Tetrachloro-1-amino-1-aminomethyl cyclopentane platinum] — 3.6-fold higher, 18000 µg/mL

System: not given
Assay: not given
Details: background statement; cited from earlier work

In the case of `N.N.[Cl][Pt][Cl]` [cis-Platin, cis-dichlorodiammineplatinum], the carcinostatic effect is given as “very excellent”.

System: not listed separately
Assay: Solubility in water
Details: not given

In the case of `CCC(C(=O)[O-])C(=O)[O-].NCC1(N)CCCCC1.[Pt+2]` [compound 17, cis-2-Ethylmalonato-1-amino-1-aminomethyl cyclohexane platinum], the Solubility in water is reported as 8000 µg/mL.

— US4607114A, “Novel platinum complexes” (Nippon Kayaku Kabushiki Kaisha, priority 1983, dated 1986)
